Measurements from patent publication EP2914280B1, “SOMATOSTATIN-DOPAMINE CHIMERIC ANALOGS” (IPSEN PHARMA S.A.S., priority 2012, dated 2014).
Like-named read-outs stand apart in the source and are kept apart here. Numbered stars: 1 amine (or outer) side, 2 acyl side, 3 side chain; on linkers, the order of the positions; unused ones are H or OH. Bridge positions count the residues as written; N and C are the ends. Square brackets hold non-standard residues; d marks the D form. Peptide text beside a SMILES is read from it. X1 = CN1C[C@H](CSCCN(CCSC[C@@H]2C[C@@H]3c4cccc5[nH]cc(c45)C[C@H]3N(C)C2)[C@H](CCCCN[*:2])C(=O)[*:1])C[C@@H]2c3cccc4[nH]cc(c34)C[C@H]21; 4Pal = N[C@@H](Cc1ccncc1)C(=O)O

Legend:
hSSTR2 [1] = molecular target: T1, hSSTR2 (Homo sapiens, UniProt P30874); experiment: Intracellular calcium mobilization assay (FLIPR Calcium 4), hSSTR2; assay type: cell-based;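 further: agonist activity measured in cells expressing hSSTR2, seeded in 384-well plates, loaded with Calcium 4 dye, read-out as rise in intracellular calcium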
T1 construct: host or cells: 'Cells expressing hSSTR2'
T1 sequence (P30874 whole entry): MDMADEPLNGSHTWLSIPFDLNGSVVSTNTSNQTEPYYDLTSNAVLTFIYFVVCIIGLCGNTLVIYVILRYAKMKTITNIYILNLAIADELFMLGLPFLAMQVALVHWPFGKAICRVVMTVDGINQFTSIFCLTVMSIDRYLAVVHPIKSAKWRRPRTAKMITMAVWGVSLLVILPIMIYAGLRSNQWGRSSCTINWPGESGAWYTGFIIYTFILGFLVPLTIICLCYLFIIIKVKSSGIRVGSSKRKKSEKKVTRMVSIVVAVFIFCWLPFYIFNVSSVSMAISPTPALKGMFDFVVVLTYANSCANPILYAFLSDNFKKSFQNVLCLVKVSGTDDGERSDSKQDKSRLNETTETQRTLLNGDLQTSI

hSSTR5 = molecular target: T2, hSSTR5 (Homo sapiens, UniProt P35346); experiment: Somatostatin receptor radioligand binding assay (hSSTR5); settings: CHO-K1 cell membranes; 0.05 nM [125I-Tyr]-[DPhe-cyclo(Cys-Tyr-DTrp-Lys-Val-Cys)-Thr-NH2]; 60 minutes at 25°C; read-out: hSSTR5 Ki (nM) ± SEM
T2 construct: expressed in transfected cells; host or cells: CHO-K1 (ATCC), pcDNA3.1, G418-selected clonal line; membranes
T2 sequence (P35346 whole entry): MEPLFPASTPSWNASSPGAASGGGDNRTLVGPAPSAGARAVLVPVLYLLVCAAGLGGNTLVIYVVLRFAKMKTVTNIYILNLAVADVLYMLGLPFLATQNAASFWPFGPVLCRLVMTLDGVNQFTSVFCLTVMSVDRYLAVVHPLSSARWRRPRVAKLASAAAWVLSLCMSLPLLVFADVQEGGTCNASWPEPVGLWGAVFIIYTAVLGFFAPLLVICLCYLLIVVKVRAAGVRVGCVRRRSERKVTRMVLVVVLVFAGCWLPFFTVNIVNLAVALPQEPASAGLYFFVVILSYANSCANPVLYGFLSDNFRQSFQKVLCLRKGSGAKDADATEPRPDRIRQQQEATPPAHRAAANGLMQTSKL
Procedure: (§1) The affinities of a test compound for the human somatostatin receptors were determined by radioligand binding assays in CHO-K1 cells stably transfected with each of the human somatostatin receptor subtypes, hSSTR1-5. […] Clonal cell lines stably expressing each of the somatostatin receptors were obtained by transfection into CHO-K1 cells (ATCC) and subsequently selected with culture media containing 0.8 mg/mL of G418 (Life Technologies).
(§2) Membranes for in vitro receptor binding assays were obtained by the following procedures. […] The supernatant containing the plasma membranes was centrifuged at 100,000 x g for 30 minutes and the pellet was resuspended in buffer containing 20 mM glycine-glycine, 1 mM MgCl2, 250 mM sucrose, pH 7.2, for storage at -80°C.
(§3) For the SSTR1, 2 and 5 assays, membranes and various concentrations of test compounds were incubated in 96-well plates for 60 minutes at 25°C with 0.05 nM [^125I-Tyr^11]-SRIF-14 (for hSSTR1; PerkinElmer Life Science), 0.05 nM [^125I-Tyr]-seglitide (for hSSTR2; PerkinElmer Life Science) or 0.05 nM [^125I-Tyr]-[DPhe-cyclo(Cys-Tyr-DTrp-Lys-Val-Cys)-Thr-NH2] (for hSSTR5; PerkinElmer Life Science) in 50 mM HEPES, 0.2% BSA, 0.1 mM MgCl2, pH 7.5.
(§4) The incubations were terminated by rapid filtration through GF/C glass microfiber filter plates (pre-wet with 0.3% polyethyleneimine and 0.1 % BSA) using a 96-well cell harvester (Brandel). Plates were washed six times with 1 mL/well aliquots of ice-cold buffer containing 50 mM Tris buffer, pH 7.7. Specific binding was defined as the total radioligand bound minus the bound in the presence of 1000 nM SRIF-14.

hSSTR2 [2] = molecular target: T1, hSSTR2; experiment: Somatostatin receptor radioligand binding assay (hSSTR2);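 further: radioligand displacement on membranes of CHO-K1 cells stably transfected with human SSTR2, specific binding taken as total minus binding left with 1000 nM SRIF-14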
hSSTR1 = molecular target: T3, hSSTR1 (Homo sapiens, UniProt P30872); experiment: Somatostatin receptor radioligand binding assay (hSSTR1)
T3 construct: expressed in transfected cells; host or cells: CHO-K1 (ATCC), pcDNA3.1, G418-selected clonal line; membranes
T3 sequence (P30872 whole entry): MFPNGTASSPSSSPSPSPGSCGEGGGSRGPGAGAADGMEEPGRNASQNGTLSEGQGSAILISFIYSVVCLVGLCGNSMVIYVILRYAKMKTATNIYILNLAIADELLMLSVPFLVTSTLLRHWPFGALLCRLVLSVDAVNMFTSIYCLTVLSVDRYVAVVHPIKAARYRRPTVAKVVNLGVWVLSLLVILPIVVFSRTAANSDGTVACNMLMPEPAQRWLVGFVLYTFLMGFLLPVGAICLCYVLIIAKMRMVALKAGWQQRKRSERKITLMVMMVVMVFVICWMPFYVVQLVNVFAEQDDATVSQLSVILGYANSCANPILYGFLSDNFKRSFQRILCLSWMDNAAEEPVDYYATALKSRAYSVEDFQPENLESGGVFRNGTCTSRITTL
Procedure: as §1, §2, §3, §4

hDRD2 [3] = molecular target: T4, hDRD2 (Homo sapiens, UniProt P14416); experiment: cell-based; design: host or cells: 'Cells expressing hDRD2'; settings: for Emax: read-out: hDRD2 %Emax ± SEM
T4 sequence (P14416 whole entry): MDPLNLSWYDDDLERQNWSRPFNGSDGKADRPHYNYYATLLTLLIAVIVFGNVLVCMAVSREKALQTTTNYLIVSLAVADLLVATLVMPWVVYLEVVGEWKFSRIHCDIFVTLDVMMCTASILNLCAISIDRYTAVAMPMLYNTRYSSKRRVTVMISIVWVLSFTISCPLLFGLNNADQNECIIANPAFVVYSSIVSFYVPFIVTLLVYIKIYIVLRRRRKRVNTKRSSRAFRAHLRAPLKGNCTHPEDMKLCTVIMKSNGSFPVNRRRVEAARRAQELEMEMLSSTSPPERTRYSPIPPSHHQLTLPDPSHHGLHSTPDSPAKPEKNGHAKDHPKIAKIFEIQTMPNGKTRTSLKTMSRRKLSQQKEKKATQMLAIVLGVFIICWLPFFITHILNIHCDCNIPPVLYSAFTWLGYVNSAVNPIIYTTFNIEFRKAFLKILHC

hDRD2 [4] = molecular target: T4, hDRD2; experiment: biochemical; assay type: binding; design: expressed in transfected cells; host or cells: CHO-K1, pcDNA3.1/GS, zeocin-selected clonal line; membranes
[5] = CHO-K1 cell membranes, 0.05 nM [125I-Tyr]-seglitide, 60 minutes at 25°C, read-out: hSSTR2 Ki (nM) ± SEM
[6] = CHO-K1 cell membranes, 0.05 nM [125I-Tyr11]-SRIF-14, 60 minutes at 25°C, read-out: hSSTR1 Ki (nM) ± SEM
[7] = CHO-K1 cell membranes, […] [3H]-spiperone, 60 minutes at 25°C, read-out: hDRD2 Ki (nM) ± SEM
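Wherever Emax is given: agonist activity at human DRD2 in DRD2-expressing cells, read as intracellular calcium mobilization with a FLIPR Calcium 4 fluorescent dye.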

SMILES	EC50 (hSSTR2 [1])	Ki (hSSTR5)	Ki (hSSTR2 [2])	Ki (hSSTR1)	EC50 (hDRD2 [3])	Emax (hDRD2 [3])	Ki (hDRD2 [4])	Ki (hSSTR2 [2]; [5])	Ki (hSSTR1; [6])	Ki (hDRD2 [4]; [7])	EC50 (hSSTR2 [1]; Table IV, cells expressing hSSTR2, read-out: hSSTR2 EC50 (nM) ± SEM)	improvement in %Emax over Reference Compound C (hSSTR2 [1]; receptor not named)	improvement in EC50 over Reference Compound A (hSSTR2 [1]; p value (Student's t-test, one-tailed) < 0.05, receptor not named)
C[C@@H](O)[C@@H]1NC(=O)[C@H](CCCCN)NC(=O)[C@@H](Cc2c[nH]c3ccccc23)NC(=O)[C@H](Cc2ccccc2)NC(=O)[C@H](Cc2ccccc2)NC(=O)[C@H](CCCNC(=N)N)NC(=O)[C@H](NCC[S+]([O-])C[C@@H]2C[C@@H]3c4cccc5[nH]cc(c45)C[C@H]3N(C)C2)CCCCNC(=O)[C@H](Cc2ccc(F)cc2)NC1=O (stereo partly drawn) [Compound 14, Dop1(SO)-psi(CH2NH)-cyclo(DLys-Arg-Phe-Phe-DTrp-Lys-Thr-4FPhe)]	1.3 ± 0.1 nM	0.36 nM	0.05 ± 0.01 nM	6 nM	8.7 ± 1.7 nM	103 ± 2.3%	76.5 ± 13.9 nM	–	–	–	–	–	–
C[C@@H](O)[C@@H]1NC(=O)[C@H](CCCCN)NC(=O)[C@@H](Cc2c[nH]c3ccccc23)NC(=O)[C@H](Cc2ccncc2)NC(=O)[C@H](Cc2ccccc2)NC(=O)[C@H](CCCNC(=N)N)NC(=O)[C@H](NCC[S@+]([O-])C[C@@H]2C[C@@H]3c4cccc5[nH]cc(c45)C[C@H]3N(C)C2)CCCCNC(=O)[C@H](Cc2ccc(O)cc2)NC1=O [Compound 11, Dop1[(R)SO]-psi(CH2NH)-cyclo(DLys-Arg-Phe-4Pa1-DTrp-Lys-Thr-Tyr)]	2.4 ± 0.4 nM	0.09 nM	0.05 nM	160 ± 22.5 nM	6.4 ± 0.9 nM	106 ± 3.5%	79.7 ± 21.4 nM	–	–	–	–	–	–
C[C@@H](O)[C@@H]1NC(=O)[C@H](CCCCN)NC(=O)[C@@H](Cc2c[nH]c3ccccc23)NC(=O)[C@H](Cc2ccccc2)NC(=O)[C@H](Cc2ccccc2)NC(=O)[C@H](CCCNC(=N)N)NC(=O)[C@H](NC[C@H](Cc2ccc(O)cc2)NC(=O)C[S+]([O-])C[C@@H]2C[C@@H]3c4cccc5[nH]cc(c45)C[C@H]3N(C)C2)CCCCNC(=O)[C@H](Cc2ccc(F)cc2)NC1=O (stereo partly drawn) [Compound 13, Dop1(SO)-Tyr-psi(CH2NH)-cyclo(DLys-Arg-Phe-Phe-DTrp-Lys-Thr-4FPhe)]	1.6 ± 0.1 nM	0.23 nM	0.04 ± 0.02 nM	8.6 nM	9.2 ± 2.7 nM	93.9 ± 4.5%	32.5 ± 8.9 nM	–	–	–	–	–	–
C[C@@H](O)[C@@H]1NC(=O)[C@H](CCCCN)NC(=O)[C@@H](Cc2c[nH]c3ccccc23)NC(=O)[C@H](Cc2ccncc2)NC(=O)[C@H](Cc2ccccc2)NC(=O)[C@H](CCCNC(=N)N)NC(=O)[C@H](NCCS(=O)(=O)C[C@@H]2C[C@@H]3c4cccc5[nH]cc(c45)C[C@H]3N(C)C2)CCCCNC(=O)[C@H](Cc2ccc(O)cc2)NC1=O [Compound 20, Dop1(SO2)-psi(CH2NH)-cyclo(DLys-Arg-Phe-4Pal-DTrp-Lys-Thr-Tyr)]	–	0.33 nM	–	–	–	101.5 ± 0.6%	–	0.02 ± 0.01 nM	689 nM	115 ± 41.3 nM	–	–	–
C[C@@H](O)[C@@H]1NC(=O)[C@H](CCCCN)NC(=O)[C@@H](Cc2c[nH]c3ccccc23)NC(=O)[C@H](Cc2ccccc2)NC(=O)[C@H](Cc2ccccc2)NC(=O)[C@H](CCCNC(=N)N)NC(=O)[C@H](NCCSC[C@@H]2C[C@@H]3c4cccc5[nH]cc(c45)C[C@H]3N(C)C2)CCCCNC(=O)[C@H](Cc2ccccc2)NC1=O [Compound 26, Dop1-psi(CH2NH)-cyclo(DLys-Arg-Phe-Phe-DTrp-Lys-Thr-Phe)]	9.8 ± 1.4 nM	–	2.23 ± 0.97 nM	59 nM	34.1 ± 6.8 nM	93.7 ± 7.2%	309 ± 56.6 nM	–	–	–	–	–	–
C[C@@H](O)[C@@H]1NC(=O)[C@H](CCCCN)NC(=O)[C@@H](Cc2c[nH]c3ccccc23)NC(=O)[C@H](Cc2ccncc2)NC(=O)[C@H](Cc2ccccc2)NC(=O)[C@H](CCCNC(=N)N)NC(=O)[C@H](N(CCSC[C@@H]2C[C@@H]3c4cccc5[nH]cc(c45)C[C@H]3N(C)C2)CCSC[C@@H]2C[C@@H]3c4cccc5[nH]cc(c45)C[C@H]3N(C)C2)CCCCNC(=O)[C@H](Cc2ccc(O)cc2)NC1=O [Compound 35, bis[Dop1-psi(CH2N)]-cyclo(DLys-Arg-Phe-4Pal-DTrp-Lys-Thr-Tyr)] (RF[4Pal][dW]KTY; linker N-C via X1)	–	–	–	–	97.4 ± 21.1 nM	103 ± 1.4%	345 ± 40.4 nM	0.17 ± 0.06 nM	99.7 nM	–	19.4 ± 6.2 nM	–	–
C[C@@H](O)[C@@H]1NC(=O)[C@H](CCCCN)NC(=O)[C@@H](Cc2c[nH]c3ccccc23)NC(=O)[C@H](Cc2ccccc2)NC(=O)[C@H](Cc2ccccc2)NC(=O)[C@H](CCCNC(=N)N)NC(=O)[C@H](NC[C@H](CCCCNC(=O)CSC[C@@H]2C[C@@H]3c4cccc5[nH]cc(c45)C[C@H]3N(C)C2)NC(=O)CSC[C@@H]2C[C@@H]3c4cccc5[nH]cc(c45)C[C@H]3N(C)C2)CCCCNC(=O)[C@H](Cc2ccc(F)cc2)NC1=O [Compound 47, Dop1-Lys(Dop1)-psi(CH2NH)-cyclo(DLys-Arg-Phe-Phe-DTrp-Lys-Thr-4FPhe)]	–	–	–	–	–	92.5 ± 0.8%	–	0.58 ± 0.27 nM	29 nM	84.2 ± 7.5 nM	–	statistically significant improvement in %Emax	–
C[C@@H](O)[C@@H]1NC(=O)[C@H](CCCCN)NC(=O)[C@@H](Cc2c[nH]c3ccccc23)NC(=O)[C@H](Cc2ccncc2)NC(=O)[C@H](Cc2ccccc2)NC(=O)[C@H](CCCNC(=N)N)NC(=O)[C@H](NC[C@H](CCCCNC(=O)C[S+]([O-])C[C@@H]2C[C@@H]3c4cccc5[nH]cc(c45)C[C@H]3N(C)C2)NC(=O)C[S+]([O-])C[C@@H]2C[C@@H]3c4cccc5[nH]cc(c45)C[C@H]3N(C)C2)CCCCNC(=O)[C@H](Cc2ccc(O)cc2)NC1=O (stereo partly drawn) [Compound 16, Dop1(SO)-Lys[Dop1(SO)]-psi(CH2NH)-cyclo(DLys-Arg-Phe-4Pal-DTrp-Lys-Thr-Tyr)]	6 ± 0.8 nM	–	0.04 ± 0.03 nM	–	4.7 ± 0.5 nM	95.2 ± 1.7%	22.5 ± 1.9 nM	–	–	–	–	–	–
C[C@@H](O)[C@@H]1NC(=O)[C@H](CCCCN)NC(=O)[C@@H](Cc2c[nH]c3ccccc23)NC(=O)[C@H](Cc2ccccc2)NC(=O)[C@H](Cc2ccccc2)NC(=O)[C@H](CCCNC(=N)N)NC(=O)[C@H](NCCCCC[C@@H]2C[C@@H]3c4cccc5[nH]cc(c45)C[C@H]3N(C)C2)CCCCNC(=O)[C@H](Cc2ccc(F)cc2)NC1=O [Compound 3, (D-6-methyl-8β-ergolinyl)-pentanoyl-psi(CH2NH)-cyclo(DLys-Arg-Phe-Phe-DTrp-Lys-Thr-4FPhe)]	137 ± 63.8 nM	–	0.72 ± 0.17 nM	–	212 ± 85.6 nM	84.1 ± 12.2%	45.2 ± 4.9 nM	–	–	–	–	–	–
C[C@@H](O)[C@@H]1NC(=O)[C@H](CCCCN)NC(=O)[C@@H](Cc2c[nH]c3ccccc23)NC(=O)[C@H](Cc2ccncc2)NC(=O)[C@H](Cc2ccccc2)NC(=O)[C@H](CCCNC(=N)N)NC(=O)[C@H](NCCSC[C@@H]2C[C@@H]3c4cccc5[nH]cc(c45)C[C@H]3N(C)C2)CCCCNC(=O)[C@H](Cc2ccccc2)NC1=O [Compound 23, Dop1-psi(CH2NH)-cyclo(DLys-Arg-Phe-4Pal-DTrp-Lys-Thr-Phe)]	2.4 ± 0.1 nM	–	0.09 nM	–	34.2 ± 13.7 nM	96.4 ± 5.3%	328 ± 19.3 nM	–	–	–	–	–	statistically significant improvement in EC50
